Values joined by “and” are separate entries in the source; they are usually repeats but may differ in a detail not shown here. Identical values can stand only once. Active and inactive are the calls of the source. No rule for the calls is given here.
molecular target: Insulin-degrading enzyme (Homo sapiens) (UniProt P14735); assay: recombinant IDE inhibition, cell-free – biochemical, fluorescence polarization, counter-screen for IDE inhibitor project, late-stage follow-up (AID 588711)
Sequence (P14735 whole entry, looked up): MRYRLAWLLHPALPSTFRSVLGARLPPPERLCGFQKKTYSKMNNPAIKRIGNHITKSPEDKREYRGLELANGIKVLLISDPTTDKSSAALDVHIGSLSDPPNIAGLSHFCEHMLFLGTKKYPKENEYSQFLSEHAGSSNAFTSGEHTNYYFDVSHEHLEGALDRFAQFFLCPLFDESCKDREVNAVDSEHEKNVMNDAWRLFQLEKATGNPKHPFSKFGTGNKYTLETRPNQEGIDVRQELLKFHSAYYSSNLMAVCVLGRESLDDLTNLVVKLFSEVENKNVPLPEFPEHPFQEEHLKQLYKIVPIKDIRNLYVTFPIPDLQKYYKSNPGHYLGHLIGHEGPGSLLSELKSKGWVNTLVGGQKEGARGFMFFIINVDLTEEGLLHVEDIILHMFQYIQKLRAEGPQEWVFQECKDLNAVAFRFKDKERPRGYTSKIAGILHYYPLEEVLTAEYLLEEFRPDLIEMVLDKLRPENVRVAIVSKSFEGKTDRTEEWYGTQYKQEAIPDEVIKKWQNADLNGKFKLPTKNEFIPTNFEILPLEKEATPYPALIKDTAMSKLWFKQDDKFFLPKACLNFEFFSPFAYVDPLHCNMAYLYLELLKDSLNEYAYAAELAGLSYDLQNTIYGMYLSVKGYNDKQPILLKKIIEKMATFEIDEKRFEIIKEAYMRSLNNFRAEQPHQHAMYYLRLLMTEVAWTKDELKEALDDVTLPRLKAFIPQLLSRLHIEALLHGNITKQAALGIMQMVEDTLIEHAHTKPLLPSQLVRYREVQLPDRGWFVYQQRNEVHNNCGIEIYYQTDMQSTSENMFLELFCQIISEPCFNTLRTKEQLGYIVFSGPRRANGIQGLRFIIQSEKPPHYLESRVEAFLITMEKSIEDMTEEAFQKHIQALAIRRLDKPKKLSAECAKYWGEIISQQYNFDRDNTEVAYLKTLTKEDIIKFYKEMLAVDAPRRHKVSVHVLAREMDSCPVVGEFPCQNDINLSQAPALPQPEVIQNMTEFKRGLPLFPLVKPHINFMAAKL

Row | Structure (SMILES) | IC50
1 | Cc1ccc(C)c(N2C(=N)S/C(=C\c3ccc(-c4ccccc4C(=O)O)o3)C2=O)c1 | > 54.7 µM (inactive)
2 | Cc1ccc(NC(=O)CSc2nnc(-c3cccc(Cl)c3)n2Cc2ccco2)c(C)c1 | > 54.7 µM (inactive)
3 | COc1ccc(NC(=O)CSc2nnc(CN3CCOCC3)n2C)cc1Cl | > 54.7 µM (inactive)
4 | O=C(CSc1nnc(-c2cccc(Cl)c2)n1Cc1ccco1)Nc1ccc2c(c1)OCCO2 | > 54.7 µM (inactive)
5 | Clc1cccc(-c2nnc(SCc3nc4ccccc4[nH]3)n2-c2ccccc2)c1 | > 54.7 µM (inactive)
6 | Cn1c(SCc2nc3ccccc3[nH]2)nnc1-c1cccc(Cl)c1 | > 54.7 µM (inactive)
7 | O=C(CSc1nnc(-c2cccc(Cl)c2)n1Cc1ccco1)c1ccc2ccccc2c1 | > 54.7 µM (inactive)
8 | O=C(CSc1nnc(-c2cccc(Cl)c2)n1Cc1ccco1)Nc1ccc2cn[nH]c2c1 | > 54.7 µM (inactive)
9 | Cc1c(CCC(=O)NCCCn2ccnc2)c(=O)oc2cc3oc4c(c3cc12)CCCC4 | 6.14 µM
10 | O=C(C1CC1)N1CCN(c2ccnc3cc(Cl)ccc23)CC1 | inactive
11 | O=C(Nc1cccc(C(F)(F)F)c1)c1csc(-c2cccc(C(F)(F)F)c2)n1 | > 54.7 µM (inactive)
12 | O=c1c2ccccc2sn1-c1cc(S(=O)(=O)N2CCOCC2)ccc1N1CCOCC1 | 1.71 µM
13 | COc1cc(/C=C2\SC(=S)N(NC(C)=O)C2=O)ccc1OC(=O)c1ccco1 | inactive

Further lines, results first:

Row | IC50 | Structure (SMILES)
14 | > 54.7 µM (inactive) | Cc1nc(-c2cccnc2)sc1C(=O)Nc1cccc(C(F)(F)F)c1
15 | > 18.2 µM (inactive) | Nc1c(C(=O)Nc2nccs2)sc2nc(-c3cccs3)cc(C(F)(F)F)c12
16 | inactive | COc1ccc(C(=O)N2CCN(C(=O)C3COc4ccccc4O3)CC2)cc1OC (stereo not given)
17 | > 54.7 µM (inactive) | O=C(Nc1cccc(C(F)(F)F)c1)c1csc(-c2ccccc2)n1
18 | > 54.7 µM (inactive) | CC(Sc1nnc(-c2cccnc2)n1-c1ccccc1F)C(=O)N1CCCc2ccccc21 (stereo not given)
19 | > 54.7 µM (inactive) | O=C(Nc1cc(C(F)(F)F)cc(C(F)(F)F)c1)c1csc(-c2ccncc2)n1
20 | 2.34 µM | Clc1cccc(-c2nnc(SCc3nc4ccccc4[nH]3)n2Cc2ccco2)c1
21 | 7.21 µM and 6.15 µM | Cc1cccc(-c2nnc(SCc3nc4ccccc4[nH]3)n2Cc2ccco2)c1
22 | 8.54 µM | CCOc1ccc2[nH]c3c(N4CCN(C(=O)c5ccco5)CC4)ncnc3c2c1
23 | > 54.7 µM (inactive) | O=C(Nc1ccc2oc(-c3cccnc3)nc2c1)c1ccc2c(c1)OCCO2
24 | > 54.7 µM (inactive) | Cc1ccc(-c2nc(C(=O)Nc3cccc(C(F)(F)F)c3)cs2)cc1
25 | > 54.7 µM (inactive) | COc1ccc(-c2nc(C(=O)Nc3cccc(C(F)(F)F)c3)cs2)cc1
26 | > 54.7 µM (inactive) | O=C(Nc1cccc(C(F)(F)F)c1)c1csc(Cc2cccc(C(F)(F)F)c2)n1
27 | > 54.7 µM (inactive) | O=C(CSc1nnc(-c2cccc(Cl)c2)n1Cc1ccco1)Nc1ccccc1C(F)(F)F
28 | > 54.7 µM (inactive) | Cn1c(=O)c(C(=O)CN2CCCc3ccccc32)c(N)n(Cc2ccccc2)c1=O
29 | 5.9 µM | COc1cccc(-c2nnc(SCc3nc4ccccc4[nH]3)n2Cc2ccco2)c1
30 | 2.8 µM | O=C(Nc1cccc(C(F)(F)F)c1)c1csc(-c2ccncc2)n1

From PubChem BioAssay AID588711 (The Scripps Research Institute Molecular Screening Center, 2011)
